Test results published in patent US6369066B1, “Substituted 1,3-oxathiolanes with antiviral properties” (BioChem Pharma, Inc., priority 1990, dated 2002).
≈ marks a conversion by molar mass, not a printed value.

Tests used:
Assay type in all cases: cell-based
HIV-1 (HTLV-IIIB) = assay: CBM assay, IC50 from RT levels in culture fluids; conditions: Human immunodeficiency virus 1
Protocol: Assays on cord blood mononuclear cells were done substantially as described in Gu et al., J. Virol. (1992), 66:7128-7135.
(§1) In short, viruses (HTLV-IIIB) that had initially been grown on MT-4 cells were passaged onto phytohemaglutinin-prestimulated cord blood mononuclear cells (CBM). For subsequent analysis, samples of CBM (5×10^5 cells per mL) were pretreated with various concentrations of the different compounds for 4 h and were then inoculated with CBL-grown HIV-1 at a multiplicity of infection of 1.0 in the concentration of the compound used for the pretreatment. Fresh medium, including the appropriate concentration of the compound was added three times weekly, and fresh phytohemaglutinin-prestimulated CBM (5×10^5 cells per mL) were added at 2-day intervals. The calculation of IC50 was determined on the basis of RT levels in culture fluids as described in Gao et al., (1992), J. Virol. 66: 12-19.

HIV-1 IIIB = assay: IC50 in CBMCs with HIV-1 isolate IIIB; conditions: Human immunodeficiency virus 1
Protocol: as §1
(§2) Determination of IC50 (μM) in Different Mutated Isolates of HIV-1 in the Presence of Different Antiviral Compounds
(§3) The procedure is similar to the procedure used in the CBM assay, with the exception that constructed virus and construted mutated virus were used.

[1] = test system: 2.2.15 cells (Hep G2 cells transfected with human hepatitis B virus genomic DNA); assay: Cytotoxicity (CD50) reported with HBV assay; conditions: HBV table
Protocol: (§4) The method used for this test is described in detail in Korba et al., Antiviral research 15, 217-228 (1992) which is shortly described as follows: Hep G2 cells transfected with human hepatitis B virus genomic DNA (2.2.15 cells) were grown and maintained in RPMI-1640 culture medium containing %5 foetal bovine serum, 2 mM glutamine and 50 μg/ml gentamicin sulphate, and checked routinely for G418 resistance. Cultures of 2.2.15 cells were grown to confluence in 24 well tissue culture plates and maintained for 2 to 3 days in that condition prior to drug treatment.

C8166 cells = assay: Cytotoxicity (CD50) reported with syncytium formation assay; conditions: syncytium formation table
HTLV-IIIb = assay: HIV-1 acutely infected cell lines, p24 antigen levels; conditions: p24 antigen at day 6; for ID50 CEM: CEM cells infected with HTLV-IIIb; for ID50 H9: H9 cells infected with HTLV-IIIb; for ID50 Jurkat: Jurkat cells infected with HTLV-IIIb; for ID50 MT-4: MT-4 cells infected with HTLV-IIIb; for ID50 U937: U937 cells infected with HTLV-IIIb
Protocol: Determination of IC50 ([…]) in HIV-1 Acutely Infected Cell Lines in the Presence of Differet Antiviral Compounds
Various cell lines were infected with HTLV-IIIb (TCID50=200) and then cultured with various concentrations of drug. IC50 was determined by measuring p24 antigen levels in the supernatant of cultures at day 6 of infection.

HIV-1 HXB2D = assay: IC50 in CBMCs with constructed virus HXB2D; conditions: Human immunodeficiency virus 1, read-out: IC50 HXB2D
Protocol: as §1, §2, §3
(§5) The constructed virus HXB2D-65 correspond to the ddC resistance mutation and the constructed virus HXB2D-184 correspond to the 3TC™ and FTC resistance mutation.

human hepatitis B virus = assay: Inhibition of human hepatitis B virus in 2.2.15 cells, extracellular HBV DNA; conditions: 10 day treatment
Protocol: Inhibition of Human Hepatitis B Virus.
as §4
Drugs were dissolved in sterile water or sterile 50% DMSO in water at concentrations 100-fold higher than the higher test concentration. These solutions were diluted as needed in culture medium.
The culture medium on the confluent cells was changed 24 hours prior to exposure to test compounds. During the 10 day treatment, the culture medium was changed daily. After 10 days of the treatment, the culture medium was collected and frozen at −70° C. for HBV DNA analysis. […]
A purified 3.2 kb EcoR1 HBV DNA fragment was labeled with [^32p]dCTP by nick translation and used as a probe to detect HBV DNA on the dot-blot by DNA hybridization. After washing, the hybridized blot was dried and ^32p was quantified using an Ambis beta scanner.

[2] = test system: HIV-1 HXB2D-65 K→R (ddC resistance mutation); assay: IC50 in CBMCs with constructed mutated virus HXB2D-65; conditions: Human immunodeficiency virus 1, read-out: IC50 HXB2D-65 K→R
Protocol: as §1, §2, §3, §5

Jurkat = assay: Cell culture inhibitory dose (CCID50) in Jurkat; conditions: cell counting, trypan blue exclusion, 7 days post drug treatment
Protocol: (§6) Evaluation of Cell Culture Inhibitory Dose (CCID50)
(§7) Cell growth was determined by cell counting and viability by trypan blue exclusion 7 days post drug treatment. CCID50 is expressed as the drug concentration which inhibits 50% of cell growth.

CEM = assay: Cell culture inhibitory dose (CCID50) in CEM; conditions: cell counting, trypan blue exclusion, 7 days post drug treatment
Protocol: as §6, §7

| SMILES | IC50 (HIV-1 (HTLV-IIIB)) [µg/mL] | IC50 (HIV-1 IIIB) [nM] | CD50 (HBV) [1] [µg/mL] | CD50 (C8166 cells) [µg/mL] | ID50 CEM (HTLV-IIIb) [µg/mL] | ID50 H9 (HTLV-IIIb) [µg/mL] | ID50 Jurkat (HTLV-IIIb) [µg/mL] | ID50 MT-4 (HTLV-IIIb) [µg/mL] | ID50 U937 (HTLV-IIIb) [µg/mL] | IC50 (HIV-1 HXB2D) [nM] | ID50 (HBV) (human hepatitis B virus) [µg/mL] | IC50 [2] [nM] | CCID50 Jurkat (Jurkat) [µM] | CCID50 CEM (CEM) [µM] |
| --- | --- | --- | --- | --- | --- | --- | --- | --- | --- | --- | --- | --- | --- | --- |
| Nc1ccn([C@@H]2CO[C@H](CO)S2)c(=O)n1 [Compound #2, 2S-hydroxymethyl-4S-(cytosin-1′-yl)-1,3-oxathiolane] | 0.03 to 1.22 (≈ 0.131 to 5.32 µM) | 280 | >10 | >100 | 0.4 (≈ 1.74 µM) | 0.075 (≈ 0.327 µM) | 1.8 (≈ 7.85 µM) | 0.9 (≈ 3.93 µM) | 0.3 (≈ 1.31 µM) | 100 | 4 (≈ 17.4 µM) | 3500 | 11 | 103 |
| Nc1nc(=O)n([C@H]2CO[C@@H](CO)S2)cc1F [compound 3, 2R-hydroxymethyl-4R-(5′-fluorocytosin-1′-yl)-1,3-oxathiolane] | 0.002 to 0.05 (≈ 0.00809 to 0.202 µM) | 830 |  | >100 | 0.2 (≈ 0.809 µM) | 0.1 (≈ 0.404 µM) | 3.5 (≈ 14.2 µM) | 3.0 (≈ 12.1 µM) | 0.6 (≈ 2.43 µM) | 3000 |  | 11500 | >500 | >500 |
| Nc1nc(=O)n([C@@H]2CO[C@H](CO)S2)cc1F [compound 4, 2S-hydroxymethyl-4S-(5′-fluorocytosin-1′-yl)-1,3-oxathiolane] | 0.02 to 0.05 (≈ 0.0809 to 0.202 µM) | 340 |  | >100 | 0.3 (≈ 1.21 µM) | 1.0 (≈ 4.04 µM) | 6.0 (≈ 24.3 µM) | 3.2 (≈ 12.9 µM) | 0.4 (≈ 1.62 µM) | 3000 |  | 6500 | >500 | >500 |
